# Measurements as given in patent US20250154154A1 (Relay Binney Street, 2nd Floor, priority 2020, published 2025).
# Assays:
# [1] = target: SRC (Homo sapiens, UniProt P12931); assay: SRC Biochemical Assay Protocol (microfluidic mobility shift assay, FLPeptide4 substrate)
# Outline: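 Recombinant SRC (0.26 nM) preincubated 30 min at RT with compound (0.0017–100 μM) and 1.5 μM FLPeptide4, then 50 μM ATP added; 90 min reaction in HEPES pH 7.4, 10 mM MgCl2, 1% DMSO, EDTA-quenched. Phosphopeptide quantified by microfluidic mobility shift; IC50 from 4-parameter logistic fit.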
# [2] = tested on: RBE cells; assay: Cell Viability Protocol (CellTiterGlo), RBE cells; assay type: cell-based; conditions: RBE or SNU-1079 cells, 72 or 120 hour, cell line and time not given
# Experimental: RBE or SNU-1079 cells were cultured in T-75 or T-175 flasks at 37° C., 5% CO2, 95% relative humidity in RPMI 1640 medium with 10% FBS and 1% Penicillin/Streptomycin (media) and detached with 0.25% trypsin/EDTA at 80-90% confluency. Cells were then seeded in 40 μL media per well in 384-well flat-bottom polystyrene microplates (Corning Cat. No. 3570) at a seeding density of 1200 cells/well and incubated for 24 hours at 37° C. with 5% CO2, 95% relative humidity. On the next day, test compounds were prepared in 10 mM DMSO stock solution and diluted to the indicated concentrations in a 384-well compound source plate. DMSO was employed as a vehicle control. Compounds (40 nL) were transferred to 384-well cell culture plate(s) using the liquid handler Echo550. Plates were incubated at 37° C. with 5% CO2 for 72 hour or 120 hour (as indicated). CellTiterGlo reagent was warmed to 37° C. and added into each well (40 μL per well). Plates were incubated at room temperature for 30 min followed by reading on the EnSpire or EnVision plate reader. Relative viability (% remaining activity) was calculated relative to DMSO control and IC50 values were obtained from dose-response data fitted to a 4-parameter curve.
# [3] = tested on: phospho-S6RP (Ser 235/236) in RBE cells; assay: Cellular Proliferation Protocol (cellular phospho-S6RP HTRF), RBE cells; assay type: cell-based; conditions: 6 hours treatment, RBE or SNU-1079 cells, cell line not given
# Experimental: Cellular Proliferation Protocol
# Cellular phospho-S6RP (Ser 235/236) was measured using a Fluorescence Resonance Energy Transfer (FRET) sandwich assay format (Cisbio HTRF Cat. No. 64RP6PEG). This format uses 2 different, labelled antibodies (Eu^3+-Cryptate donor and d2 acceptor) that positively modulate a specific signal in proportion to phospho-S6RP (Ser 235/236) directly in cells. RBE or SNU-1079 cells were cultivated in T-75 flasks at 37° C., 5% CO2, 95% relative humidity in RPMI 1640 medium with 10% FBS and 1% Penicillin/Streptomycin and detached with trypsin/EDTA at 80-90% confluency. Cells were then seeded in 40 μL volume per well in 384-well flat-bottom polystyrene microplates (Corning Cat. No. 3570) at a seeding density of 2000 cells/well for RBE and 3000 cells/well for SNU-1079 followed by 24 hour incubation at 37° C., 5% CO2, 95% relative humidity. On the next day, compounds were diluted to […] the indicated concentrations and 40 nL of these treatment compounds, along with DMSO vehicle control, were added to the cells (final concentration of compounds is then the indicated concentrations). Treatment was carried out for 6 hours at 37° C., 5% CO2, 95% relative humidity after which the plates were cooled to room temperature before aspirating the medium. Cells were then lysed on a shaker for 45 minutes at room temperature with 20 μL of 1× supplemented lysis buffer per well. After lysis, 5 μL of pre-mixed antibodies was added per well. Plates were covered with black sealing film and incubated overnight at room temperature on a shaker before being read on a PerkinElmer EnVision microplate reader. Percent activation was calculated relative to DMSO control and IC50 values were obtained from dose-response data fitted to a 4-parameter curve.
# Sequence of SRC (P12931 whole entry, species assumed): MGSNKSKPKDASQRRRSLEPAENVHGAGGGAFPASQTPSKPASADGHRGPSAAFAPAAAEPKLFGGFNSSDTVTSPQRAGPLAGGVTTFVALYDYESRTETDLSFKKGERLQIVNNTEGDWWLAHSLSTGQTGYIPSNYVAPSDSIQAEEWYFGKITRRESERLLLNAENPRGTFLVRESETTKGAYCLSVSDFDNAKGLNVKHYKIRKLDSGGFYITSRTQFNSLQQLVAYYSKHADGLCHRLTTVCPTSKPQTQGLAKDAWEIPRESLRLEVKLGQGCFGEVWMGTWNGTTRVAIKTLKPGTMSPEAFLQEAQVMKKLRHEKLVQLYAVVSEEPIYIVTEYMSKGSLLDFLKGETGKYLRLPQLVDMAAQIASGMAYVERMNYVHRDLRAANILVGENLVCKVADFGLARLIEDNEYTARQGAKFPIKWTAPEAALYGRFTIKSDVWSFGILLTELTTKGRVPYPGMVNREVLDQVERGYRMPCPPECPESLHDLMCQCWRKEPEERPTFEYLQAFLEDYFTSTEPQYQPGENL
SMILES,IC50 [1],IC50 [2],IC50 ([3]; 6 h),IC50 [3]
C=CC(=O)N1CCC(N2CC(F)(C#Cc3c(-c4ccc(Oc5ccccc5)c(OC)n4)c4c(N)ncnc4n3C)C2)CC1 [II-317],10 to 1000 nM,≤ 10 nM,,10 to 1000 nM
"C=CC(=O)N1CCN(C2CC(C#Cc3c(-c4ccc(Oc5ccccc5)cc4)c4c(N)ncnc4n3C)C2)CC1 (stereo not drawn) [II-167, 1-(4-(3-((4-amino-7-methyl-5-(4-phenoxyphenyl)-7H-pyrrolo[2,3-d]pyrimidin-6-yl)ethynyl)cyclobutyl)piperazin-1-yl)prop-2-en-1-one]",10 to 1000 nM,≤ 10 nM,10 to 1000 nM,
C=CC(=O)N1CCC(N2CC(C#Cc3c(-c4ccc(Cl)cn4)c4c(N)ncnc4n3C)C2)CC1 [II-325],10 to 1000 nM,1000 to 10000 nM,,1000 to 10000 nM
C=CC(=O)N1CC[C@@H](N2CC(C#Cc3c(-c4ccc(OC5COC5)cc4)c4c(N)ncnc4n3C(C)C)C2)[C@@H](O)C1 [II-57],10 to 1000 nM,1000 to 10000 nM,,1000 to 10000 nM
C=CC(=O)N1CC[C@@H](N2CC(C#Cc3c(-c4ccc(Oc5cccc(F)c5)cc4)c4c(N)ncnc4n3C)C2)[C@@H](O)C1,10 to 1000 nM,10 to 1000 nM,,10 to 1000 nM
C=CC(=O)N1CC[C@@H](N2CC(C#Cc3c(-c4ccc(Cl)c(CO)c4)c4c(N)ncnc4n3C)C2)[C@@H](O)C1 [II-59],10 to 1000 nM,1000 to 10000 nM,,10 to 1000 nM
C=CC(=O)N1C[C@@H]2[C@@H](C#Cc3c(-c4ccc(Oc5cnccn5)cc4)c4c(N)ncnc4n3C)[C@@H]2C1 [II-22],10 to 1000 nM,10 to 1000 nM,,10 to 1000 nM
C=CC(=O)N1CCC(C#Cc2c(-c3ccc(Nc4ccccc4)cc3)c3c(N)ncnc3n2C(C)C)CC1 [Example I-7],10 to 1000 nM,10 to 1000 nM,≤ 10 nM,
"C=CC(=O)N1CCC(N2CC(C#Cc3c(-c4ccc(Oc5ccccc5)cc4)c4c(N)ncnc4n3C)C2)C1 (stereo not drawn) [II-195, 1-(3-(3-((4-amino-7-methyl-5-(4-phenoxyphenyl)-7H-pyrrolo[2,3-d]pyrimidin-6-yl)ethynyl)azetidin-1-yl)pyrrolidin-1-yl)prop-2-en-1-one]",10 to 1000 nM,10 to 1000 nM,10 to 1000 nM,
C=CC(=O)N1CCC(N2CC(C#Cc3c(-c4ccc(Oc5cccc(C)n5)c(OC)c4)c4c(N)ncnc4n3C)C2)CC1 [II-81],10 to 1000 nM,10 to 1000 nM,,10 to 1000 nM
C=CC(=O)N1CCC(C#Cc2c(-c3ccc(Oc4cccc(C)n4)cc3)c3c(N)ncnc3n2C(C)C)CC1 [Example I-23],10 to 1000 nM,10 to 1000 nM,10 to 1000 nM,
C=CC(=O)N1C[C@@H]2[C@@H](C#Cc3c(-c4ccc(Oc5cccc(C)n5)cc4OC)c4c(N)ncnc4n3CS(C)(=O)=O)[C@@H]2C1 [II-50],10 to 1000 nM,1000 to 10000 nM,,1000 to 10000 nM
C=CC(=O)N1CC[C@@H](N2CC(C#Cc3c(-c4ccc(Cl)c(F)c4)c4c(N)ncnc4n3C)C2)[C@@H](O)C1 [II-66],10 to 1000 nM,10 to 1000 nM,,10 to 1000 nM
"Cc1cccc(Oc2ccc(-c3c(C#C[C@@H]4[C@H]5CN(C(=O)/C=C/CN6CCC(F)C6)C[C@@H]45)n(C)c4ncnc(N)c34)cc2)n1 (stereo partly drawn) [II-230, (E)-1-((1R,5S,6s)-6-((4-amino-7-methyl-5-(4-((6-methylpyridin-2-yl)oxy)phenyl)-7H-pyrrolo[2,3-d]pyrimidin-6-yl)ethynyl)-3-azabicyclo[3.1.0]hexan-3-yl)-4-(3-fluoropyrrolidin-1-yl)but-2-en-1-one]",10 to 1000 nM,10 to 1000 nM,10 to 1000 nM,
C=CC(=O)N1CC[C@@H](N2CC(C#Cc3c(-c4cccc(OC)n4)c4c(N)ncnc4n3C)C2)[C@@H](O)C1 [II-61],10 to 1000 nM,1000 to 10000 nM,,10 to 1000 nM
CN(C)CCC(=O)N1CCC(C#Cc2c(-c3ccc(Oc4ccccc4)cc3)c3c(N)ncnc3n2C)CC1 [II-188],10 to 1000 nM,10 to 1000 nM,10 to 1000 nM,
C=CC(=O)N1CCC(N2CC(C#Cc3c(-c4ccc5c(c4)OCCN5C)c4c(N)ncnc4n3C)C2)CC1 [II-105],10 to 1000 nM,10 to 1000 nM,,10 to 1000 nM
C=CC(=O)N1CCC(N2CC(C#Cc3c(-c4ccc(Cl)c(C)n4)c4c(N)ncnc4n3C(C)C)C2)CC1 [II-326],10 to 1000 nM,10 to 1000 nM,,10 to 1000 nM

# Further lines, with some results ahead:
IC50 [1],SMILES,IC50 [2],IC50 ([3]; 6 h),IC50 [3]
10 to 1000 nM,"COc1cc(Oc2cccc(C)n2)ccc1-c1c(C#C[C@@H]2[C@H]3CN(C(=O)/C=C/CN(C)C)C[C@@H]23)n(C)c2ncnc(N)c12 [II-226, (E)-1-((1R,5S,6s)-6-((4-amino-5-(2-methoxy-4-((6-methylpyridin-2-yl)oxy)phenyl)-7-methyl-7H-pyrrolo[2,3-d]pyrimidin-6-yl)ethynyl)-3-azabicyclo[3.1.0]hexan-3-yl)-4-(dimethylamino) but-2-en-1-one]",10 to 1000 nM,10 to 1000 nM,
10 to 1000 nM,C=CC(=O)N1CCC(N2CC(F)(C#Cc3c(-c4ccc(Oc5cccc(C)n5)c(OC)c4)c4c(N)ncnc4n3C)C2)CC1 [II-243],10 to 1000 nM,10 to 1000 nM,
≤ 10 nM,C=CC(=O)N1C[C@@H]2[C@@H](C#Cc3c(-c4ccc(F)c5c4OCO5)c4c(N)ncnc4n3C)[C@@H]2C1 [II-130],10 to 1000 nM,,10 to 1000 nM
≤ 10 nM,C=CC(=O)N1CC[C@@H](N2CC(C#Cc3c(-c4ccc(Cl)c(OC)c4)c4c(N)ncnc4n3C(C)C)C2)[C@@H](O)C1 [II-55],10 to 1000 nM,,≤ 10 nM
10 to 1000 nM,C=CC(=O)N1C[C@@H]2[C@@H](C#Cc3c(-c4cc(Cl)ccc4OC)c4c(N)ncnc4n3C)[C@@H]2C1 [II-260],10 to 1000 nM,10 to 1000 nM,
≤ 10 nM,C=CC(=O)N1CC[C@@H](N2CC(C#Cc3c(-c4ccc(Cl)cc4)c4c(N)ncnc4n3C(C)C)C2)[C@@H](O)C1 [II-53],10 to 1000 nM,,10 to 1000 nM
≤ 10 nM,C=CC(=O)N1C[C@@H]2[C@@H](C#Cc3c(-c4cccc5c4OCO5)c4c(N)ncnc4n3C(C)C)[C@@H]2C1 [II-132],≤ 10 nM,,≤ 10 nM
≤ 10 nM,C=CC(=O)N1CCC(N2CC(C#Cc3c(-c4ccc(Cl)c(O)c4)c4c(N)ncnc4n3C)C2)CC1 [II-95],10 to 1000 nM,,10 to 1000 nM
10 to 1000 nM,C=CC(=O)N1CC[C@H](N2CC(C#Cc3c(-c4ccc(Oc5cccc(C)n5)c(OC)c4)c4c(N)ncnc4n3C)C2)[C@H](F)C1 [II-309],10 to 1000 nM,10 to 1000 nM,
10 to 1000 nM,Cc1cccc(Oc2ccc(-c3c(C#C[C@@H]4[C@H]5CN(C(=O)/C=C/CN(C)C)C[C@@H]45)n(C4CCOC4)c4ncnc(N)c34)cc2)n1 (mixture of isomers) [II-28],10 to 1000 nM,,10 to 1000 nM
10 to 1000 nM,"C=CC(=O)N1CC[C@@H](N2CC(C#Cc3c(-c4ccc(Oc5cccc(C)n5)cc4)c4c(N)ncnc4n3C)C2)[C@@H](F)C1 [II-201, 1-((3S,4R)-4-(3-((4-amino-7-methyl-5-(4-(6-methylpyridin-2-yloxy)phenyl)-7H-pyrrolo[2,3-d]pyrimidin-6-yl)ethynyl)azetidin-1-yl)-3-fluoropiperidin-1-yl)prop-2-en-1-one]",10 to 1000 nM,10 to 1000 nM,
≤ 10 nM,C=CC(=O)N1CCC(N2CC(C#Cc3c(-c4ccc(Cl)cc4)c4c(N)ncnc4n3C(C)C)C2)CC1 [II-84],10 to 1000 nM,,10 to 1000 nM
≤ 10 nM,C=CS(=O)(=O)N1CC[C@@H](N2CC(C#Cc3c(-c4ccc(Oc5ccccc5)cc4)c4c(N)ncnc4n3C)C2)[C@@H](O)C1 [II-280],≤ 10 nM,10 to 1000 nM,
≤ 10 nM,C=CC(=O)N1CC[C@H](N2CC(C#Cc3c(-c4ccc(Cl)c(C)c4)c4c(N)ncnc4n3C(C)C)C2)[C@H](O)C1 [II-112],10 to 1000 nM,,10 to 1000 nM
